Publication PMC6984391, “Anion carriers as potential treatments for cystic fibrosis: transport in cystic fibrosis cells, and additivity to channel-targeting drugs” (Chemical Science, 2019)

Tests used:
[1] = Affinity to Cl- in chloroform by extraction of Et4N+Cl- from water; type: binding; conditions: extraction of Et4N^+Cl^– from water into chloroform at 303 K; new compound or new data
Experimental: Measurement of affinities to Et4N+Cl- in chloroform through extraction from […]
This method is adapted from Clare et al..4 The Et4N+Cl- salt was obtained from Sigma Aldrich and dried under vacuum overnight prior to solution preparation using deionised water that had been passed through a Millipore filtration system. All host solutions were prepared using chloroform that had been deacidified by passage through a flash chromatography column containing basic alumina.
A solution of host in deacidified chloroform was combined with 10 mL of aqueous Et4N+Cl-guest solution in a sample tube (30 mL). Concentrations and volumes are specified in Table
S1. A magnetic stirring bar (2 cm) was added to the tube and the lower half was immersed in a water bath heated to 303 K, while the contents were stirred vigorously to achieve good mixing of the two phases. After 30 minutes, stirring was stopped and the two phases were allowed to separate. The majority of the aqueous phase was then removed using a pipette and the remaining organic phase was centrifuged for 10 minutes at 4000 rpm. The chloroform solution was then filtered through Whatman 1PS hydrophobic filter paper to remove any remaining aqueous phase. Solvent from the filtrate was then removed in vacuo and the solid was further dried under vacuum. The resulting solids from the extraction experiments were dissolved in acetone-d6 and the solutions were analysed with 1H NMR spectroscopy.
A value for the molar ratio (R) was determined by integrating the signal at δ = 3.5 ppm (CH2 of Et4N+Cl-) against one of the receptor signals.
The values for R obtained from the 1H NMR spectra were used to calculate values for the equilibrium extraction constants Ke:
Horg + Xaq− + Yaq+ ⇌HX−Yorg+ Ke = org […]
To convert the extraction constants Ke into association constants Ka it is necessary to obtain the distribution constants Kd for the substrates between aqueous and organic phases:
The Kd value for tetraethylammonium chloride partitioning between water and chloroform has been determined and reported previously to be 1.269 × 10-5 M-1.5
The binding constant Ka is then calculated from Ke and Kd:
H + X−Y+ ⇌ HX−Y+ K = org = e […]
When [G] > 100 mM, the amount of salt that migrates from the aqueous phase into the organic phase without assistance of the host has to be taken into account by correcting the measured […]
Table S1. Overview of the conditions and results from the extraction experiments Receptor [H] (mM) [G] (mM) Vorg (mL) Vaq (mL) Rmeasured Ka (M-1)

YFP-FRT cells = test: YFP fluorescence plate reader assay of anion transport in YFP-FRT cells; type: cell-based, Fischer rat; conditions: for anion transport activity in YFP-FRT cells (in words): 50 μM; for Corrected absolute initial slope |dF/dT|: transporter 50 μM, DMSO 0.5% v/v, DMSO-only subtracted, I^– 100 mM
Experimental: We treated YFP-FRT cells with anionophores (final concentration, 1–50 μM) or the vehicle DMSO (0.1–0.5% v/v) by direct addition to the phosphate-buffered saline (PBS) bathing the cells. After incubating YFP-FRT cells with anionophores for 10 minutes at 37 °C, we evaluated anion transport activity by adding I^– (100 mM), using a PBS iodide solution with Cl^– replaced by I^–, and following cell fluorescence for 14 s. FRT cells are relatively impermeable to anions because they lack key ion channels found in epithelial cells, including CFTR.[33] Thus, in the absence of anionophore, iodide cannot enter YFP-FRT cells and no quenching of fluorescence occurs. By contrast, in the presence of an anionophore, iodide influx occurs leading to fluorescence quenching.[29]
To quantify anion transport by different anionophores, we fitted first order exponential functions to the iodide-induced fluorescence decay to measure the initial slope, averaging values over multiple experiments. Fig. 2b and Table 1 summarise the data. Consistent with our previous results,[29] we observed a wide range of anion transport activity. […] We therefore selected for further study 11, 12, 15 and 19.
FRT cells stably expressing the halide sensor YFP-H148Q/I152L6 were generous gifts of AS Verkman (University of California, San Francisco), while CFBE41o- cells7 stably expressing YFP (YFP-CFBE cells) were a generous gift of LJV Galietta (Telethon Institute for […]
Genetics and Medicine). […]
U ml-1 penicillin and […] streptomycin. All cells were incubated at 37 °C in a humidified atmosphere with 5% CO2. […]
Fluorescence plate reader assay […]
quenching of YFP fluorescence at 37 °C using a microplate reader following the method of Galietta et al..9 The microplate reader (model: FLUORstar Omega; BMG LABTECH Ltd., Aylesbury, UK) was equipped with a syringe pump and excitation (500 ± 10 nm) and emission (535 ± 15 nm) filters (Chroma Technology GmbH, Olching, Germany). After washing cells twice with PBS (composition (mM): 137 NaCl, 2.7 KCl, 8.1 Na2HPO4, 1.5 KH2PO4, 1 CaCl2 and 0.5 MgCl2, pH 7.40), cells were incubated with test anionophores (1 – 50 µM) or the vehicle (DMSO [0.1 – 0.5% v v-1]) in 40 µl of PBS for 10 – 120 minutes according to the experimental design. Other compounds, including forskolin, ivacaftor and channel inhibitors were added to […]
the PBS bathing cells 10 minutes prior to PBS iodide addition, whereas UTP was added to cells with the PBS iodide solution. Fluorescence was measured for 14 seconds; 2 seconds before and 12 seconds after injection of 110 µl PBS iodide solution (137 mM Cl- replaced by I-) into each well (to obtain a final concentration of I- of 100 mM).
We expressed cell fluorescence values (F) relative to the fluorescence value immediately before I- injection (F0), excluding the initial decrease, which likely represents the quenching of extracellular YFP released from cells and signal reduction accompanying the increase in solution volume bathing cells. To quantify anion transport by test anionophores, we determined the initial slope of the fluorescence decay following I - addition by fitting first order exponential functions to the last 12 seconds of each fluorescence recording. In each experim ent, n values represent the mean of two replicates and all treatments were tested at least three times using different microplates. […]
FRT cells was selected and the cells were perfused with (i) PBS for 5 minutes then (ii) PBS containing I- (10 mM) (made by preparing PBS with 127 mM NaCl to maintain osmolarity) for 5 minutes and finally (iii) PBS for 30 minutes to remove thoroughly I- from the perfusion chamber. YFP-FRT cells were repeatedly treated with I- (10 mM) and then washed with PBS […]
During all interventions, the rate of solution perfusion was 8 – 10 ml min-1; temperature was 37 °C and except for the first

Structure (SMILES)	K a to Cl^– in CHCl3 [1]	anion transport activity in YFP-FRT cells (in words) (YFP-FRT cells)	Corrected absolute initial slope |dF/dT| (YFP-FRT cells)
CCCCCCCCOC(=O)[C@]12CC[C@@H](NC(=S)Nc3ccc([N+](=O)[O-])cc3)C[C@@H]1C[C@@H](NC(=S)Nc1ccc([N+](=O)[O-])cc1)CC2 [Compound 13]	1.5 × 10^9 M^–1	intermediate levels	3.3 ×10^–3 s^–1
FC(F)(F)c1cc(NC(=S)NCCN(CCNC(=S)Nc2cc(C(F)(F)F)cc(C(F)(F)F)c2)CCNC(=S)Nc2cc(C(F)(F)F)cc(C(F)(F)F)c2)cc(C(F)(F)F)c1 [Compound 19]	1.5 × 10^9 ^b M^–1	notable decays in fluorescence	12.2 ×10^–3 s^–1
CCOC(=O)[C@]12CC[C@@H](NC(=S)Nc3ccc([N+](=O)[O-])cc3)C[C@@H]1C[C@@H](NC(=S)Nc1ccc([N+](=O)[O-])cc1)CC2 [Compound 12]	–	notable decays in fluorescence	17.2 ×10^–3 s^–1
FC(F)(F)c1ccc(NC(=S)NCCN(CCNC(=S)Nc2ccc(C(F)(F)F)cc2)CCNC(=S)Nc2ccc(C(F)(F)F)cc2)cc1 [Compound 18]	1.5 × 10^7 ^b M^–1	–	1.1 ×10^–3 s^–1
COCCOCCOC(=O)[C@]12CC[C@@H](NC(=O)Nc3ccc(C(F)(F)F)cc3)C[C@@H]1C[C@@H](NC(=O)Nc1ccc(C(F)(F)F)cc1)CC2 [Compound 9]	1.4 × 10^8 M^–1	–	1.1 ×10^–3 s^–1
COCCOCCOC(=O)[C@]12CC[C@@H](NC(=O)Nc3cc(C(F)(F)F)cc(C(F)(F)F)c3)C[C@@H]1C[C@@H](NC(=O)Nc1cc(C(F)(F)F)cc(C(F)(F)F)c1)CC2 [Compound 10]	2.5 × 10^8 M^–1	–	0.7 ×10^–3 s^–1
CCOC(=O)[C@]12CC[C@@H](NC(=S)Nc3cc(C(F)(F)F)cc(C(F)(F)F)c3)C[C@@H]1C[C@@H](NC(=S)Nc1cc(C(F)(F)F)cc(C(F)(F)F)c1)CC2 [Compound 15]	–	notable decays in fluorescence	22.6 ×10^–3 s^–1
